# Results: PubChem BioAssay (NCI)
#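 Five compound concentrations were applied to cells in 96-well plates for 48 hours; endpoints were derived by simple linear interpolation of the resulting dose-response curve. Here, GI50 denotes the concentration required for 50% inhibition of growth. TGI marks complete inhibition of growth.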
# Legend:
# Experiment in all cases: NCI tumour cell line growth inhibition, 48 h
# [1] = tested on: CAKI-1 renal
# [2] = tested on: OVCAR-3 ovarian
# [3] = tested on: NCI-H226 lung
# [4] = tested on: PC-3 prostate
# [5] = tested on: RXF 393 renal
# [6] = tested on: SF-295 CNS
# [7] = tested on: HL-60(TB) leukemia
# [8] = tested on: MDA-MB-435
# [9] = tested on: SW-620 colon
# [10] = tested on: OVCAR-4 ovarian
# [11] = tested on: HCT-116 colon
# [12] = tested on: MCF7 breast
# [13] = tested on: SNB-75 CNS
# [14] = tested on: HOP-92 NSCLC
# [15] = tested on: SN12C renal
# [16] = tested on: UACC-257 melanoma
# [17] = tested on: LOX IMVI melanoma
# [18] = tested on: HS 578T breast
# [19] = tested on: OVCAR-5 ovarian
# [20] = tested on: DU-145 prostate
# [21] = tested on: TK-10 renal
# [22] = tested on: SK-OV-3 ovarian
# [23] = tested on: MDA-MB-231 breast
# [24] = tested on: M14 melanoma
# [25] = tested on: U251 CNS
# [26] = tested on: SNB-19 CNS
# [27] = tested on: EKVX NSCLC
# [28] = tested on: HT29 colon
# [29] = tested on: T-47D breast
# [30] = tested on: A498 renal
# [31] = tested on: HCC-2998 colon
# [32] = tested on: NCI/ADR-RES ovarian
# [33] = tested on: NCI-H23 lung
# [34] = tested on: COLO 205 colon
# [35] = tested on: BT-549 breast
# [36] = tested on: HOP-62 NSCLC
# [37] = tested on: SK-MEL-5 melanoma
# [38] = tested on: HCT-15 colon
# [39] = tested on: RPMI-8226 leukemia
# [40] = tested on: A549 NSCLC
# [41] = tested on: SF-539 CNS
# [42] = tested on: KM12 colon
# [43] = tested on: UACC-62 melanoma
# [44] = tested on: ACHN renal
# [45] = tested on: NCI-H460 lung
# [46] = tested on: SK-MEL-28 melanoma
# [47] = tested on: 786-0 renal
# [48] = tested on: SF-268 CNS
# [49] = tested on: OVCAR-8 ovarian
# [50] = tested on: MALME-3M melanoma
smiles,measurement,setting,value
CN1CCN(c2ccc3c4c(cccc24)C(=O)N(CCN2CCN(CCCN4CCN(CCN5C(=O)c6cccc7c(N8CCN(C)CC8)ccc(c67)C5=O)CC4)CC2)C3=O)CC1,GI50,[1],8.21 µM
same,TGI,[1],16.8 µM
same,GI50,[2],8.2 µM
same,TGI,[2],15.8 µM
same,GI50,[3],6 µM
same,TGI,[3],14.4 µM
same,GI50,[4],5.14 µM
same,TGI,[4],11.6 µM
same,GI50,[5],5.4 µM
same,TGI,[5],12 µM
same,GI50,[6],5.75 µM
same,TGI,[6],13.7 µM
same,GI50,[7],1.49 µM
same,TGI,[7],7.15 µM
same,GI50,[8],7.34 µM
same,TGI,[8],15.5 µM
same,GI50,[9],1.59 µM
same,TGI,[9],50 µM
same,GI50,[10],8.01 µM
same,TGI,[10],19.4 µM
same,GI50,[11],1.23 µM
same,TGI,[11],5.79 µM
same,GI50,[12],5.06 µM
same,TGI,[12],18.5 µM
same,GI50,[13],7 µM
same,TGI,[13],14.1 µM
same,GI50,[14],2.39 µM
same,TGI,[14],10.9 µM
same,GI50,[15],4.02 µM
same,TGI,[15],11.2 µM
same,GI50,[16],10.2 µM
same,TGI,[16],18.4 µM
same,GI50,[17],4.56 µM
same,TGI,[17],11.6 µM
same,GI50,[18],10.6 µM
same,TGI,[18],38.7 µM
same,GI50,[19],5.79 µM
same,TGI,[19],11.9 µM
same,GI50,[20],7.19 µM
same,TGI,[20],17 µM
same,GI50,[21],9.38 µM
same,TGI,[21],21.1 µM
same,GI50,[22],9.49 µM
same,TGI,[22],18.3 µM
same,GI50,[23],6.33 µM
same,TGI,[23],13 µM
same,GI50,[24],7.54 µM
same,TGI,[24],14.2 µM
same,GI50,[25],7.43 µM
same,TGI,[25],14.3 µM
same,GI50,[26],7.03 µM
same,TGI,[26],16.2 µM
same,GI50,[27],8.16 µM
same,TGI,[27],17.3 µM
same,GI50,[28],1.13 µM
same,TGI,[28],4.31 µM
same,GI50,[29],19.8 µM
same,TGI,[29],50 µM
same,GI50,[30],9.79 µM
same,TGI,[30],17.4 µM
same,GI50,[31],0.738 µM
same,TGI,[31],4.4 µM
same,GI50,[32],4.2 µM
same,TGI,[32],10.3 µM
same,GI50,[33],7.08 µM
same,TGI,[33],13.8 µM
same,GI50,[34],5.6 µM
same,TGI,[34],21.8 µM
same,GI50,[35],9.92 µM
same,TGI,[35],19.7 µM
same,GI50,[36],1.49 µM
same,TGI,[36],6.82 µM
same,GI50,[37],8.59 µM
same,TGI,[37],18.6 µM
same,GI50,[38],4.08 µM
same,TGI,[38],11.3 µM
same,GI50,[39],0.861 µM
same,TGI,[39],1.89 µM
same,GI50,[40],7.37 µM
same,TGI,[40],15 µM
same,GI50,[41],7.67 µM
same,TGI,[41],16.9 µM
same,GI50,[42],4.34 µM
same,TGI,[42],14.1 µM
same,GI50,[43],8.45 µM
same,TGI,[43],15.7 µM
same,GI50,[44],3.13 µM
same,TGI,[44],9.72 µM
same,GI50,[45],5.54 µM
same,TGI,[45],33.5 µM
same,GI50,[46],9.37 µM
same,TGI,[46],17.1 µM
same,GI50,[47],1.79 µM
same,TGI,[47],6.87 µM
same,GI50,[48],4.57 µM
same,TGI,[48],47.5 µM
same,GI50,[49],2.99 µM
same,TGI,[49],10.7 µM
same,GI50,[50],8.36 µM
same,TGI,[50],19.8 µM
